Experiments:
[1] = tested on: mechanical allodyna after chronic constriction of the sciatic nerve; assay: Neuropathic pain, chronic constriction of the sciatic nerve (CCI); assay type: in vivo, Male Sprague Dawley rats; conditions: four and a half hour after administration
Procedure: The analgesic activity of compounds of the invention was assessed in a chronic constriction induced (CCI) model of neuropathic pain. […] The development of mechanical allodyna was monitored using a Dynamic Plantar Sesthesiomether as described in Example 18. This apparatus is an automated version of the classical von Frey filaments' test.
Pre-surgery baseline values were ascertained as the mean of 2 pre-surgery values. Once the baseline values are established, the animals were surgically prepared by constricting the right sciatic nerve with 4-0 chromic cat gut loose ligatures. On day 11 post-operation, the animals that have developed mechanical allodyna were arbitrarily allocated to the various treatment groups based on the pre-surgery values.
The design was randomized, performed in a masked fashion as to whether drug or vehicle is being given. Male Sprague Dawley rats (average body weight 240 g, Harlan, Israel), were allowed to acclimatize to the behavioral testing equipment prior to testing. On the testing day, the animals, at least six per treatment group, were administered the compounds and controls at a volume dosage of 5 ml/kg. Fifteen minutes later, the mechanical stimulus was applied and the force, measured in grams, causing a withdrawal response for each of the ipsilateral and contralateral hind paws was evaluated.
Results are expressed as mean±SEM for each treatment group and the differences among those groups are analyzed by analysis of variance (ANOVA) followed by post-hoc Tukey's test. A value of p<0.05 is considered to be statistically significant. Thereafter the difference in the force to be applied to the injured paw as compared to the normal paw was calculated. Δforce, expressed in grams, was measured at baseline and 1 and 4.5 hours after treatment.

Human CB2 Receptor = target: T1, Human CB2 Receptor (Homo sapiens, UniProt P34972); assay: [35S]GTPγS-binding assay, hCB2; assay type: biochemical; conditions: GTPγS, Human CB2 Receptor, NB = no binding
T1 construct: host or cells: Sf9 or HEK-293 cells (membranes)

IL-10 = assay: Gene expression in LPS activated RAW 264.7 macrophages, IL-10; assay type: cell-based, mouse; conditions: RAW 264.7, 10 μM, LPS 1 μg/ml, RNA 3 hrs after activation
Procedure: RAW 264.7 macrophages, a mouse cell line (ATCC # TIB 71), were grown in Dulbecco's modified Eagle's medium (DMEM) with 4 mM L-glutamine adjusted to contain 1.5 g/L sodium bicarbonate, 4.5 g/L glucose, and 10% heat inactivated fetal bovine serum. Cells were grown in tissue culture flasks and seeded at appropriate density into 6 wells tissue culture plates. Four million Raw cells in half a milliliter were stimulated with 1 μg/ml LPS E. coli 055:B5 (DIFCO Laboratories). The mouse macrophages were pre-treated for one hour with controls or 10 μM of test compounds, and later on activated with LPS. RNA samples were extracted from the cells 3 hrs after activation and gene expression levels were analyzed by real-time RT-PCR. In parallel, supernatants were collected and secretion of inflammatory mediators was analyzed using ELISA techniques according to the instructions of the kit manufacturer.
Total RNA is prepared using SV total RNA isolation system (Promega). The cells were homogenized in lysis buffer. […] RNA concentrations were determined using GeneQuant II (Pharmacia-Amersham). […] Quantitative real-time RT-PCR included 1 μl of the cDNA, 300 nM of the appropriate forward and reverse primers (according to the gene monitored) and 7.5 μl of the reaction mix containing buffer, nucleotides, Taq polymerase and SYBER green (SYBER Green master mix, Applied Biosystems), in a total reaction volume of 15 μl. […]

T1 sequence (P34972 whole entry): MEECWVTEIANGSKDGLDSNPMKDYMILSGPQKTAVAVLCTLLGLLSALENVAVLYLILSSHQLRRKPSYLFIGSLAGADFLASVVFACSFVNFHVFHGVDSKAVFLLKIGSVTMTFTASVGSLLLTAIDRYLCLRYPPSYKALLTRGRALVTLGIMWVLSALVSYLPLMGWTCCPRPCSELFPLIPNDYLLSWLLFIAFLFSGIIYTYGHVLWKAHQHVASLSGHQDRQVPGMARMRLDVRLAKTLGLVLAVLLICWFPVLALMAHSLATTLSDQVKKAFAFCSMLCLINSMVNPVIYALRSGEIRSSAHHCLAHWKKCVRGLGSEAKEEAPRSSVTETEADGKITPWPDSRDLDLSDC

SMILES | inhibition of the pain behavior (expressed in Δforce) as compared to baseline ([1]; 0.005 mg/kg i.v.) [%] | inhibition of the pain behavior (expressed in Δforce) as compared to baseline ([1]; 0.01 mg/kg i.v.) [%] | inhibition of the pain behavior (expressed in Δforce) as compared to baseline ([1]; 0.025 mg/kg i.v.) [%] | inhibition of the pain behavior (expressed in Δforce) as compared to baseline ([1]; 0.5 mg/kg i.v.) [%] | EC50 (Human CB2 Receptor) [nM] | Emax (Human CB2 Receptor; upper plateau of curve) [%] | Percent inhibition of gene expression, IL-10 (IL-10) [%]
CCCCCCC(C)(C)c1cc(O)c2c(c1)OC1C(O)CCCCC21 (stereo not drawn) [Compound C7S-2, 2-(1,1-dimethylheptyl)-5,6,7,8,9,9a-hexahydro-4bH-10-oxa-benzo[α]azulen-4,9-diol] | 58 | 67 | 84 | 92 | 227 | 26 | –
CCCCC(C)(C)c1cc(O)c2c(c1)OC1C2CCC(C)(C)C1O (stereo not shown) [Compound C6S-7, 3-(1,1-dimethylpentyl)-7,7-dimethyl-5a,6,7,8,9,9a-hexahydro-dibenzofuran-1,6-diol] | – | – | – | – | – | – | 33

Source: patent US20090054376A1, “BENZOFURAN DERIVATIVES WITH THERAPEUTIC ACTIVITIES” (Pharmos Corporation, priority 2005, published 2009)
